# From ChEMBL document CHEMBL1177720, “Selective hexapeptide agonists and antagonists for human complement C3a receptor” (J Med Chem, 2010)
# Activity calls are given as the source filed them. No cut-off for these calls is given here. Square brackets hold non-standard residues; d marks the D form. Peptide text beside a SMILES is read from it. Cha = N[C@@H](CC1CCCCC1)C(=O)O; Orn = NCCC[C@H](N)C(=O)O
# Assays:
# [1] = target: T1, C5a anaphylatoxin chemotactic receptor 1 (Homo sapiens) (UniProt P21730); experiment: Displacement of […] from C5a receptor in human PBMC at 1 mM by scintillation counting
# T1 sequence (whole entry): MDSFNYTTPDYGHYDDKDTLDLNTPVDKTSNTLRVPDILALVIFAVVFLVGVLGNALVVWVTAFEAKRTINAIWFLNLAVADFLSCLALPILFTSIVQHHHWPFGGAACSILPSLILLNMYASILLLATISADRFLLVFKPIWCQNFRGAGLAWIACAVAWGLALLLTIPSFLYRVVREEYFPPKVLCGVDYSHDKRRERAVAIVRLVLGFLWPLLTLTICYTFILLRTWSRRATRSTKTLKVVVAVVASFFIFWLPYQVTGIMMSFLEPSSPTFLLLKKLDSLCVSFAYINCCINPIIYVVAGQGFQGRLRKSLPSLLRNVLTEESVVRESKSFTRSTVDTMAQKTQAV
# [2] = target: T2, C3a anaphylatoxin chemotactic receptor (Homo sapiens, UniProt Q16581); experiment: Agonist activity at human C3a receptor in human U937 cells assessed as induction of intracellular calcium release; assay type: functional, cell-based, U-937
# T2 sequence (Q16581 whole entry): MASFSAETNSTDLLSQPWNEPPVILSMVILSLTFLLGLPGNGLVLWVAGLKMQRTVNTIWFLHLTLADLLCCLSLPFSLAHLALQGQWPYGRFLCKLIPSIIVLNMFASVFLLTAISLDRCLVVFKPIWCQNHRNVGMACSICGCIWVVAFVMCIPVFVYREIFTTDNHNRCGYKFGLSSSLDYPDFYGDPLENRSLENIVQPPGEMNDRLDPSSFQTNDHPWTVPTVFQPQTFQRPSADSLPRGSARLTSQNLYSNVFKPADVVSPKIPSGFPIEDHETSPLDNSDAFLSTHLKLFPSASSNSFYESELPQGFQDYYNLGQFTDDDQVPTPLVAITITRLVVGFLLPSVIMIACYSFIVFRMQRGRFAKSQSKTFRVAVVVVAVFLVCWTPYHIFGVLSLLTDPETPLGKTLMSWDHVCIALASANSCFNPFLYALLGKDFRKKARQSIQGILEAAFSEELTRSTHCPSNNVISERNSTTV
# [3] = target: T2, C3a anaphylatoxin chemotactic receptor; experiment: Displacement of [125I-C3a] from C3a receptor in human PBMC by scintillation counting
# [4] = target: T3, C3a anaphylatoxin chemotactic receptor (Homo sapiens) (UniProt Q16581); experiment: Agonist activity at human C3a receptor in human U937 cells assessed as induction of intracellular calcium release at 1 mM; assay type: functional, cell-based; details: U-937
# T3 sequence (whole entry): T2 sequence (Q16581 whole entry)
# [5] = target: T3, C3a anaphylatoxin chemotactic receptor (Homo sapiens); experiment: Agonist activity at human C3a receptor in human U937 cells assessed as induction of intracellular calcium release at 10 uM; assay type: functional, cell-based; details: U-937
# [6] = target: T4, C5a anaphylatoxin chemotactic receptor 1 (Homo sapiens, UniProt P21730); experiment: Displacement of [125I-C5a] from C5a receptor in human PBMC by scintillation counting
# T4 sequence (P21730 whole entry): T1 sequence (whole entry)
# [7] = target: T3, C3a anaphylatoxin chemotactic receptor (Homo sapiens); experiment: Displacement of [125I-C3a] from C3a receptor in human PBMC at 1 mM by scintillation counting
Structure (SMILES),Activity [1],EC50 ([2]; read-out: EC50) [nM],IC50 ([3]; read-out: IC50) [nM],Activity [4],also measured
CC(C)C[C@H](NC(=O)CNC(=O)[C@H](CC(C)C)NC(=O)[C@@H](N)Cc1ccccc1)C(=O)N[C@@H](C)C(=O)N[C@@H](CCCNC(=N)N)C(=O)O (H-FLGLAR-OH),inactive,520,157,–,–
CC(C)C[C@H](NC(=O)[C@H](C)NC(=O)[C@H](CC(C)C)NC(=O)[C@@H](N)Cc1cnc[nH]1)C(=O)N[C@@H](C)C(=O)N[C@@H](CCCNC(=N)N)C(=O)O (H-HLALAR-OH),inactive,–,6300,inactive,Activity [5]: inactive
CC(C)C[C@H](NC(=O)CNC(=O)[C@H](CC(C)C)NC(=O)[C@H](CCCCN)NC(=O)[C@H](CO)NC(=O)[C@H](C)NC(=O)[C@H](CCCNC(=N)N)NC(=O)[C@H](Cc1ccc(O)cc1)NC(=O)[C@H](CCCCN)NC(=O)[C@H](CCCCN)NC(=O)CNC(=O)[C@H](Cc1c[nH]c2ccccc12)NC(=O)[C@@H](N)Cc1c[nH]c2ccccc12)C(=O)N[C@@H](C)C(=O)N[C@@H](CCCNC(=N)N)C(=O)O (H-WWGKKYRASKLGLAR-OH),inactive,–,–,–,–
CC(C)C[C@H](NC(=O)[C@@H](N)Cc1ccccc1)C(=O)N[C@H](C(=O)N[C@@H](CO)C(=O)N[C@@H](C)C(=O)N[C@@H](CCCNC(=N)N)C(=O)O)[C@@H](C)O (H-FLTSAR-OH),inactive,–,8200,inactive,–
CC(C)C[C@H](NC(=O)[C@@H]1CCCN1C(=O)[C@@H](N)Cc1c[nH]c2ccccc12)C(=O)N1CCC[C@H]1C(=O)N[C@@H](CCCNC(=N)N)C(=O)O (H-WPLPR-OH),inactive,–,27000,inactive,IC50 ([3]; read-out: pIC50 (converted)): 31600 nM; Activity [5]: inactive
CC(C)C[C@H](NC(=O)CNC(=O)[C@H](CC(C)C)NC(=O)[C@H](CCCCN)NC(=O)[C@H](CO)NC(=O)[C@H](C)NC(=O)[C@H](CCCN=C(N)N)NC(=O)[C@H](Cc1ccc(O)cc1)NC(=O)[C@H](CCCCN)NC(=O)[C@H](CCCCN)NC(=O)CNC(=O)[C@H](Cc1c[nH]c2ccccc12)NC(=O)[C@@H](N)Cc1c[nH]c2ccccc12)C(=O)N[C@@H](C)C(=O)N[C@@H](CCCN=C(N)N)C(=O)O (H-WWGKKYRASKLGLAR-OH),–,1300,2,–,–
CC(C)C[C@H](NC(=O)[C@@H](NC(=O)[C@H](Cc1c[nH]c2ccccc12)NC(=O)[C@@H](N)Cc1c[nH]c2ccccc12)[C@@H](C)O)C(=O)N[C@@H](C)C(=O)N[C@@H](CCCNC(=N)N)C(=O)O (H-WWTLAR-OH),inactive,910,244,–,–
CSCC[C@H](NC(=O)[C@@H]1CCCN1C(=O)[C@H](CCCCN)NC(=O)[C@H](Cc1ccccc1)NC(=O)[C@H](CO)NC(=O)[C@@H](N)Cc1ccc(O)cc1)C(=O)N1CCC[C@H]1C(=O)N[C@@H](CC(C)C)C(=O)N(C)[C@H](C)C(=O)N[C@@H](CCCN=C(N)N)C(=O)O,–,130,13,–,IC50 [6]: 2000 nM
CC[C@H](C)[C@H](NC(=O)[C@@H](N)Cc1ccccc1)C(=O)N1CCC[C@H]1C(=O)N[C@@H](CC(C)C)C(=O)N[C@@H](C)C(=O)N[C@@H](CCCNC(=N)N)C(=O)O (H-FIPLAR-OH),inactive,950,0.18,–,IC50 ([3]; read-out: pIC50 (converted)): 229 nM
CSCC[C@H](NC(=O)[C@@H]1CCCN1C(=O)[C@H](CCCCN)NC(=O)[C@H](Cc1cnc[nH]1)NC(=O)[C@H](CO)NC(=O)[C@@H](N)Cc1ccc(O)cc1)C(=O)N1CCC[C@H]1C(=O)N[C@@H](CC(C)C)C(=O)N[C@H](C)C(=O)N[C@@H](CCCNC(=N)N)C(=O)O,inactive,–,–,–,Activity [7]: inactive
CC(C)C[C@H](NC(=O)[C@@H](NC(=O)[C@H](CC(C)C)NC(=O)[C@@H](N)Cc1ccccc1)[C@@H](C)O)C(=O)N[C@@H](C)C(=O)N[C@@H](CCCNC(=N)N)C(=O)O (H-FLTLAR-OH),inactive,320,42,–,–
CC(=O)N[C@@H](Cc1ccccc1)C(=O)N[C@H]1CCCNC(=O)[C@H](CCCN=C(N)N)NC(=O)[C@H](Cc2c[nH]c3ccccc23)NC(=O)[C@@H](CC2CCCCC2)NC(=O)[C@@H]2CCCN2C1=O,–,–,–,inactive,Activity [7]: inactive
CC(C)C[C@H](NC(=O)[C@@H](NC(=O)[C@H](Cc1ccc(O)cc1)NC(=O)[C@@H](N)Cc1ccccc1)[C@@H](C)O)C(=O)N[C@@H](C)C(=O)N[C@@H](CCCNC(=N)N)C(=O)O (H-FYTLAR-OH),inactive,4800,166,–,–
CC(C)C[C@H](NC(=O)[C@@H]1CCCN1C(=O)[C@H](CCCCN)NC(=O)[C@@H](N)Cc1cnc[nH]1)C(=O)N[C@@H](C)C(=O)N[C@@H](CCCNC(=N)N)C(=O)O (H-HKPLAR-OH),–,–,–,inactive,–
CC(C)C[C@H](NC(=O)CNC(=O)[C@H](CC(C)C)NC(=O)[C@@H](N)Cc1cnc[nH]1)C(=O)N[C@@H](C)C(=O)N[C@@H](CCCNC(=N)N)C(=O)O (H-HLGLAR-OH),inactive,3800,5900,–,–
CSCC[C@H](NC(=O)[C@H](CC(=O)O)N(C)C(=O)[C@H](CCCCN)NC(=O)[C@H](Cc1ccccc1)NC(=O)[C@H](CO)NC(=O)[C@@H](N)Cc1ccc(O)cc1)C(=O)N1CCC[C@H]1C(=O)N[C@@H](CC(C)C)C(=O)N[C@H](C)C(=O)N[C@@H](CCCNC(=N)N)C(=O)O,–,1400,740,–,IC50 [6]: 29000 nM
CC(C)C[C@H](NC(=O)[C@@H]1CCCN1C(=O)[C@H](CCCNC(=N)N)NC(=O)[C@@H](N)Cc1ccccc1)C(=O)N[C@@H](C)C(=O)N[C@@H](CCCNC(=N)N)C(=O)O (H-FRPLAR-OH),–,–,–,inactive,–
CC(C)C[C@H](NC(=O)[C@@H]1CCCN1C(=O)[C@H](Cc1c[nH]c2ccccc12)NC(=O)[C@@H](N)Cc1ccccc1)C(=O)N[C@@H](C)C(=O)N[C@@H](CCCNC(=N)N)C(=O)O (H-FWPLAR-OH),inactive,580,274,–,–
CC(C)C[C@H](NC(=O)[C@H](CC(C)C)NC(=O)[C@@H](NC(=O)[C@H](CC(C)C)NC(=O)[C@@H](N)Cc1ccccc1)[C@@H](C)O)C(=O)N[C@@H](CCCNC(=N)N)C(=O)O (H-FLTLLR-OH),–,–,–,inactive,–
CC(C)C[C@H](NC(=O)[C@@H]1CCCN1C(=O)[C@H](CCCN)NC(=O)[C@@H](N)Cc1ccccc1)C(=O)N[C@@H](C)C(=O)N[C@@H](CCCNC(=N)N)C(=O)O (H-F[Orn]PLAR-OH),–,–,–,inactive,–
CC(C)C[C@H](NC(=O)[C@@H](NC(=O)[C@H](Cc1c[nH]c2ccccc12)NC(=O)[C@@H](N)Cc1ccccc1)[C@@H](C)O)C(=O)N[C@@H](C)C(=O)N[C@@H](CCCNC(=N)N)C(=O)O (H-FWTLAR-OH),inactive,370,82,–,–
C[C@H](NC(=O)[C@H](CC1CCCCC1)NC(=O)[C@@H]1CCCN1C(=O)[C@H](CCCCN)NC(=O)[C@@H](N)Cc1ccccc1)C(=O)N[C@@H](CCCNC(=N)N)C(=O)O (H-FKP[Cha]AR-OH),–,–,–,inactive,–
CC[C@H](C)[C@H](NC(=O)[C@H](C)NC(=O)[C@H](CC(N)=O)NC(=O)[C@@H](NC(=O)[C@@H](NC(=O)[C@H](CCCNC(=N)N)NC(=O)[C@H](CCCCN)NC(=O)[C@H](C)NC(=O)[C@H](CCC(=O)O)NC(=O)[C@H](Cc1ccccc1)NC(=O)[C@H](C)NC(=O)[C@@H](NC(=O)[C@@H](NC(=O)[C@@H](N)Cc1c[nH]c2ccccc12)C(C)C)[C@@H](C)O)[C@@H](C)O)[C@@H](C)CC)C(=O)N[C@@H](Cc1c[nH]c2ccccc12)C(=O)O (H-WVTAFEAKRTINAIW-OH),–,24000,1600,–,IC50 [6]: 1700 nM
CC(C)C[C@H](NC(=O)[C@@H]1CCCN1C(=O)[C@@H](N)Cc1ccc(O)cc1)C(=O)N1CCC[C@H]1C(=O)N[C@@H](CCCNC(=N)N)C(=O)O (H-YPLPR-OH),inactive,–,–,inactive,Activity [7]: inactive; Activity [5]: inactive
CC(C)C[C@H](NC(=O)[C@H](CC(=O)O)NC(=O)[C@H](C)NC(=O)[C@H](CC(C)C)NC(=O)[C@@H](NC(=O)[C@H](CC(C)C)NC(=O)[C@@H](N)Cc1cnc[nH]1)[C@@H](C)O)C(=O)N[C@@H](CC(C)C)C(=O)N[C@@H](CS)C(=O)N[C@@H](CS)C(=O)N[C@@H](CC(C)C)C(=O)N[C@@H](CO)C(=O)N[C@@H](CC(C)C)C(=O)N1CCC[C@H]1C(=O)N[C@@H](Cc1ccccc1)C(=O)O (H-HLTLADLLCCLSLPF-OH),–,1800,250,–,EC50 ([2]; read-out: pEC50 (converted)): 1580 nM; IC50 [6]: 560 nM
